Results taken from patent US6710168B1, “Glycopeptide antibiotics, combinatorial libraries of glycopeptide antibiotics and methods of producing same” (The Trustees of the University of Princeton, priority 1999, dated 2004).
Converted amounts (≈) assume the structure as drawn. Like-named read-outs stand apart in the source and are kept apart here.

Columns and labels:
Type in all cases: cell-based
[1] = test system: Bacillus cereus (ATCC 11778); test: MIC susceptibility test, microdilution with MTT readout; conditions: for MIC BC: Bacillus ceres ATCC11778; for MIC: Bacillus cereus, ATCC11778, read-out: MIC BC
Procedure: (§1) Evaluation of vancomycin analogs is performed using in vitro susceptibility tests and a time-kill assay. [NCCL Standard, 1993] In susceptibility tests, five strains of bacteria, two of the most important: Staphylococcus aureus and Enterococcus faecalis (both susceptible and resistant strains), and Bacillus cereus are chosen and bacteria viability remaining in each well is evaluated using a colorimetric assay based on the tetrazolium salt 3-(4,5-dimethyl-2-thiazolyl)-2,5-diphenyl-2H tetrazolium bromide (MTT) and minimum inhibitory concentration (MIC) values are determined as μg/mL. [Mosmann, T. (1983); Damour, O., et al. (1992); Mikami, Y., et al. (1994)] This assay gives susceptibility information quickly, efficiently, and clearly.
(§2) All strains [Bacillus cereus (ATCC® 11778), Staphylococcus aureus (ATCC® 29213), Methicillin resistant Staphylococcus aureus (ATCC® 33591), Enterococcus faecalis (ATCC® 29212), and gentamicin, streptmycin, vancomycin resistant Enterococcus faecalis (ATCC® 51299), are purchased from REMEL (Lenexa, Kans.).
(§3) MICs are determined by the microdilution method using 96-well microplates. Samples are suspended with Cation Adjusted (20 to 25 mg of Ca^2+/mL and 10 to […] of Mg^2+) Mueller-Hinton broth (Difco Laboratories, Detroit, Mich.) and are two-fold diluted from 5 μg/mL to […] on microplates (12 step dilution). To each well, which contained 100 μL of cell suspension (10^6 CFU/mL), 100 μL of antibiotic solution is added and the plates are incubated at 37° C. for 24 h. 50 μL of MTT solution (1 mg/mL) is added to each well, then the plates are incubated under the same conditions (incubation time; 30 min for Bacillus cereus, Staphylococcus aureus, and Methicillin resistant Staphylococcus aureus; 2 hours for Enterococcus faecalis and Gentamicin, Streptmycin, Vancomycin Enterococcus faecalis). MTT is a yellow tetrazolium salt that is reduced by mitochondrial enzymes in viable cells to an insoluble blue formazan product. MIC values are evaluated by observing the lowest drug concentration to inhibit bacteria growth.

[2] = test system: Enterococcus faecalis (ATCC 29212); test: as above
Procedure: as §1, §2, §3

[3] = test system: Methicillin resistant Staphylococcus aureus (ATCC 33591); test: as above; conditions: for MIC: ATCC 3359 / ATCC 33591 / MRSA, read-out: MIC MRSA
Procedure: as §1, §2, §3

[4] = test system: Staphylococcus aureus (ATCC 29213); test: as above
Procedure: as §1, §2, §3

[5] = test system: gentamicin, streptmycin, vancomycin resistant Enterococcus faecalis (ATCC 51299); test: microbe, parasite or virus in culture; conditions: for MIC VREF: Enterococcus faecalis ATCC51299, vancomycin resistance; for MIC: Enterococcus faecalis, ATCC51299, read-out: MIC VREF
Procedure: as §1, §2, §3

[6] = test system: Enterococcus faecium CL5137, VanA; test: MIC susceptibility test; conditions: for MIC: read-out: MIC CL5137
[7] = test system: Enterococcus faecalis CL5244, VanB; test: MIC susceptibility test; conditions: for MIC: read-out: MIC CL5244
Procedure: as §1, §3

[8] = Enterococcus faecalis ATCC29212
[9] = Staphylococcus aureus ATCC3359, Methicillin resistance
[10] = Staphylococcus aureus ATCC29213
[11] = Enterococcus faecium CL5137, VanA
[12] = Enterococcus faecalis CL5244, VanB
[13] = Enterococcus faecalis ATCC29212, read-out: MIC EF
[14] = Staphylococcus aureus ATCC29213, read-out: MIC SA

Compound | MIC BC [1] [µg/mL] | MIC EF [2, 8] [µg/mL] | MIC MRSA [3, 9] | MIC SA [4, 10] | MIC VREF [5] [µg/mL] | MIC CL5137 [6, 11] | MIC CL5244 [7, 12] | MIC [1] [µg/mL] | MIC [2, 13] [µg/mL] | MIC [3, 9] [µg/mL] | MIC [4, 14] [µg/mL] | MIC [5] [µg/mL] | MIC [6, 11] [µg/mL] | MIC [7, 12] [µg/mL] | MIC ([2]; Enterococcus faecalis, ATCC29212, read-out: MIC EF) [µg/mL] | MIC ([3]; Staphylococcus aureus) [µg/mL] | MIC ([4]; Staphylococcus aureus, ATCC29213, read-out: MIC SA) [µg/mL] | MIC ([6]; Enterococcus faecium) [µg/mL] | MIC ([7]; Enterococcus faecalis) [µg/mL]
CCCCCCCCCCNC1(C)CC(OC2C(Oc3c4cc5cc3Oc3ccc(cc3Cl)C(O)C3NC(=O)C(NC(=O)C5NC(=O)C(CC(N)=O)NC(=O)C(NC(=O)C(CC(C)C)NC)C(O)c5ccc(c(Cl)c5)O4)c4ccc(O)c(c4)-c4c(O)cc(O)cc4C(C(=O)O)NC3=O)OC(CI)C(O)C2O)OC(C)C1O (stereo not drawn) [Vancosamine-N-decyl-glucose-C6-iodo-vancomycin] | 1.0 (≈ 0.588 µM) | 0.08 (≈ 0.0471 µM) | 0.32 µg/mL (≈ 0.188 µM) | 1.3 µg/mL (≈ 0.765 µM) | 0.12 (≈ 0.0706 µM) | 6.3 µg/mL (≈ 3.71 µM) | 0.4< μg/mL |  |  |  |  |  |  |  |  |  |  |  | 
CNC(CC(C)C)C(=O)NC1C(=O)NC(CC(N)=O)C(=O)NC2C(=O)NC3C(=O)NC(C(=O)NC(C(=O)O)c4cc(O)cc(O)c4-c4cc3ccc4O)C(O)c3ccc(c(Cl)c3)Oc3cc2cc(c3OC2OC(COS(=O)(=O)c3c(C)cc(C)cc3C)C(O)C(O)C2OC2CC(C)(N)C(O)C(C)O2)Oc2ccc(cc2Cl)C1O (stereo not drawn) [XLI, Glucose-C6-mesitylenesulfonyl Vancomycin] | 1.3 (≈ 0.797 µM) | 1.3 (≈ 0.797 µM) | 1.3 µg/mL (≈ 0.797 µM) | 0.63 µg/mL (≈ 0.386 µM) | 1.3 (≈ 0.797 µM) | 50< μg/mL | 6.3 µg/mL (≈ 3.86 µM) |  |  |  |  |  |  |  |  |  |  |  | 
CN[C@@H](CC(C)C)C(=O)N[C@H]1C(=O)N[C@@H](CC(N)=O)C(=O)N[C@H]2C(=O)NC3C(=O)N[C@H](C(=O)N[C@@H](C(=O)O)c4cc(O)cc(O)c4-c4cc3ccc4O)[C@H](O)c3ccc(c(Cl)c3)Oc3cc2cc(c3OC2OC(CNN)C(O)C(O)C2OC2CC(C)(N)C(O)C(C)O2)Oc2ccc(cc2Cl)[C@H]1O (stereo partly drawn) [XLIV, Glucose-C6-hydrazine Vancomycin] |  |  |  |  |  |  |  | 1.3 (≈ 0.888 µM) | 1.3 (≈ 0.888 µM) | 1.3 (≈ 0.888 µM) | 0.63 (≈ 0.431 µM) | 2.5 (≈ 1.71 µM) | > 50 | 50 (≈ 34.2 µM) |  |  |  |  | 
CNC(CC(C)C)C(=O)NC1C(=O)NC(CC(N)=O)C(=O)NC2C(=O)NC3C(=O)NC(C(=O)NC(C(=O)O)c4cc(O)cc(O)c4-c4cc3ccc4O)C(O)c3ccc(c(Cl)c3)Oc3cc2cc(c3OC2OC(CSc3ccccc3)C(O)C(O)C2OC2CC(C)(N)C(O)C(C)O2)Oc2ccc(cc2Cl)C1O (stereo not drawn) [LIV, Glucose-C6-thiophenyl Vancomycin] | 1.3 (≈ 0.843 µM) | 1.3 (≈ 0.843 µM) | 0.63 µg/mL (≈ 0.409 µM) | 1.0 µg/mL (≈ 0.649 µM) | 2.5 (≈ 1.62 µM) | 50< μg/mL | 13 µg/mL (≈ 8.43 µM) |  |  |  |  |  |  |  |  |  |  |  | 
CN[C@@H](CC(C)C)C(=O)N[C@H]1C(=O)N[C@@H](CC(N)=O)C(=O)N[C@H]2C(=O)NC3C(=O)N[C@H](C(=O)N[C@@H](C(=O)O)c4cc(O)cc(O)c4-c4cc3ccc4O)[C@H](O)c3ccc(c(Cl)c3)Oc3cc2cc(c3OC2OC(CSc3nc(N)cc(N)n3)C(O)C(O)C2OC2CC(C)(N)C(O)C(C)O2)Oc2ccc(cc2Cl)[C@H]1O (stereo partly drawn) [LXII, Glucose-C6-6-thio-2,4-diaminopyrimidine Vancomycin] |  |  |  |  |  |  |  | 0.63 (≈ 0.4 µM) | 1.3 (≈ 0.826 µM) | 2.5 (≈ 1.59 µM) | 1.9 (≈ 1.21 µM) | 1.3 (≈ 0.826 µM) | > 50 | 6.3 (≈ 4 µM) |  |  |  |  | 
CN[C@@H](CC(C)C)C(=O)N[C@H]1C(=O)N[C@@H](CC(N)=O)C(=O)N[C@H]2C(=O)NC3C(=O)N[C@H](C(=O)N[C@@H](C(=O)O)c4cc(O)cc(O)c4-c4cc3ccc4O)[C@H](O)c3ccc(c(Cl)c3)Oc3cc2cc(c3OC2OC(CSc3nc(N)cc(O)n3)C(O)C(O)C2OC2CC(C)(N)C(O)C(C)O2)Oc2ccc(cc2Cl)[C@H]1O (stereo partly drawn) [LXIII, Glucose-C6-2-thio-4-amino-6-hydroxypyrimidine Vancomycin] |  |  |  |  |  |  |  | 5 (≈ 3.18 µM) | 2.5 (≈ 1.59 µM) | > 5 | 5 (≈ 3.18 µM) | > 5 | > 50 | 6.3 (≈ 4 µM) |  |  |  |  | 
CN[C@@H](CC(C)C)C(=O)N[C@H]1C(=O)N[C@@H](CC(N)=O)C(=O)N[C@H]2C(=O)NC3C(=O)N[C@H](C(=O)N[C@@H](C(=O)O)c4cc(O)cc(O)c4-c4cc3ccc4O)[C@H](O)c3ccc(c(Cl)c3)Oc3cc2cc(c3OC2OC(CSc3nc(C)cc(O)n3)C(O)C(O)C2OC2CC(C)(N)C(O)C(C)O2)Oc2ccc(cc2Cl)[C@H]1O (stereo partly drawn) [LXXVIII, Glucose-C6-2-thio-4-hydroxy-6-methylpyrimidine Vancomycin] |  |  |  |  |  |  |  | 0.63 (≈ 0.4 µM) | 0.63 (≈ 0.4 µM) | 1.3 (≈ 0.826 µM) | 1 (≈ 0.636 µM) | 2.5 (≈ 1.59 µM) | > 50 | 6.3 (≈ 4 µM) |  |  |  |  | 
CNC(CC(C)C)C(=O)NC1C(=O)NC(CC(N)=O)C(=O)NC2C(=O)NC3C(=O)NC(C(=O)NC(C(=O)O)c4cc(O)cc(O)c4-c4cc3ccc4O)C(O)c3ccc(c(Cl)c3)Oc3cc2cc(c3OC2OC(CNCc3ccc(-c4ccc(Cl)cc4)o3)C(O)C(O)C2OC2CC(C)(N)C(O)C(C)O2)Oc2ccc(cc2Cl)C1O (stereo not drawn) [XXX, Glucose-C6-N-5-(4-chlorophenyl)furan-1-methylene Vancomycin] | 0.63 (≈ 0.384 µM) | 0.63 (≈ 0.384 µM) | 0.32 µg/mL (≈ 0.195 µM) | 0.32 µg/mL (≈ 0.195 µM) | 0.63 (≈ 0.384 µM) | 50< μg/mL | 1.6 µg/mL (≈ 0.976 µM) |  |  |  |  |  |  |  |  |  |  |  | 
CN[C@@H](CC(C)C)C(=O)N[C@H]1C(=O)N[C@@H](CC(N)=O)C(=O)N[C@H]2C(=O)NC3C(=O)N[C@H](C(=O)N[C@@H](C(=O)O)c4cc(O)cc(O)c4-c4cc3ccc4O)[C@H](O)c3ccc(c(Cl)c3)Oc3cc2cc(c3OC2OC(CSc3nc(-c4ccccc4)c(-c4ccccc4)o3)C(O)C(O)C2OC2CC(C)(NCc3ccc(-c4ccc(Cl)cc4)cc3)C(O)C(C)O2)Oc2ccc(cc2Cl)[C@H]1O (stereo partly drawn) [LXXXVII, N-4-(4-Chlorophenyl)benzylvancosamine-glucose-C6-2-thio-4,5-diphenyloxazole Vancomycin] |  |  |  |  |  |  |  | > 5 | 5 (≈ 2.65 µM) | > 5 | > 5 | 5 (≈ 2.65 µM) | 50 (≈ 26.5 µM) | 10 (≈ 5.3 µM) |  |  |  |  | 
CN[C@@H](CC(C)C)C(=O)N[C@H]1C(=O)N[C@@H](CC(N)=O)C(=O)N[C@H]2C(=O)NC3C(=O)N[C@H](C(=O)N[C@@H](C(=O)O)c4cc(O)cc(O)c4-c4cc3ccc4O)[C@H](O)c3ccc(c(Cl)c3)Oc3cc2cc(c3OC2OC(CSc3nnc(NN)n3N)C(O)C(O)C2OC2CC(C)(N)C(O)C(C)O2)Oc2ccc(cc2Cl)[C@H]1O (stereo partly drawn) [LXXVII, Glucose-C6-5-thio-4-amino-3-hydrazino-1,2,4-triazole Vancomycin] |  |  |  |  |  |  |  | 0.63 (≈ 0.399 µM) | 0.63 (≈ 0.399 µM) | 1.3 (≈ 0.824 µM) | 1.3 (≈ 0.824 µM) | 1.3 (≈ 0.824 µM) | 63 (≈ 39.9 µM) | 3.2 (≈ 2.03 µM) |  |  |  |  | 
CCCCCCCCCCNC1(C)CC(OC2C(Oc3c4cc5cc3Oc3ccc(cc3Cl)C(O)C3NC(=O)C(NC(=O)C5NC(=O)C(CC(N)=O)NC(=O)C(NC(=O)C(CC(C)C)NC)C(O)c5ccc(c(Cl)c5)O4)c4ccc(O)c(c4)-c4c(O)cc(O)cc4C(C(=O)O)NC3=O)OC(CNC(=O)c3cnc4ccccc4n3)C(O)C2O)OC(C)C1O (stereo not drawn) [LI, Glucose-C6-N-2-quinoxaloyl-vancosamine-N-decyl Vancomycin] | 2.5 (≈ 1.43 µM) | 0.63 (≈ 0.361 µM) | 5.0< μg/mL | 5.0< μg/mL | 1.3 (≈ 0.745 µM) | 6.3 µg/mL (≈ 3.61 µM) | 0.2 µg/mL (≈ 0.115 µM) |  |  |  |  |  |  |  |  |  |  |  | 
CN[C@H](CC(C)C)C(=O)N[C@H]1C(=O)N[C@@H](CC(N)=O)C(=O)N[C@H]2C(=O)N[C@H]3C(=O)N[C@H](C(=O)N[C@H](C(=O)O)c4cc(O)cc(O)c4-c4cc3ccc4O)[C@H](O)c3ccc(c(Cl)c3)Oc3cc2cc(c3OC2OC(CO)C(O)C(O)C2OC2CC(C)(N)C(O)C(C)O2)Oc2ccc(cc2Cl)[C@H]1O (stereo partly drawn) [I, vancomycin, reference compound] |  |  |  |  |  |  |  | 1 (≈ 0.69 µM) |  |  |  | > 5 |  |  | 1.3 (≈ 0.897 µM) | 1.3 (≈ 0.897 µM) | 1 (≈ 0.69 µM) | 1600 (≈ 1100 µM) | 25 (≈ 17.3 µM)
